# Experimental data from patent publication US20240010685A1, “RNA SENSORS AND USES THEREOF” (YISSUM RESEARCH DEVELOPMENT COMPANY OF THE HEBREW …, priority 2020, published 2024).
# “And” between values parts separate entries of the source, which are not always exact repeats. Equal entries are not always repeated.
# What was measured:
# CCAT1 = experiment: fluorescence of CCAT1 FIT-PNA with RNA; conditions: [RNA]=1.5 μM and [FIT-PNA]=1 μM
# Source text: Methylating the N-7 position of Guanosine base of a PNA monomer (G+ PNA monomer) results in an improvement in the hybridization to complementary DNA whilst avoiding PNA:PNA inter- and intra-duplex formation. As enhancement of FIT-PNA fluorescence depends on the ratio between ss/ds forms (PNA/PNA:RNA), lowering the background fluorescence of ssPNA should result in greater sensitivity (i.e. increased fluorescence enhancement). In the ss form, the FIT-PNA has low background fluorescence due to […] interactions between the aromatic BisQ and adjacent aromatic PNA monomers (especially purines: G and A). As BisQ has a delocalized positive charge (from nitrogen to nitrogen), the introduction of an adjacent positive charge on G or A causes electrostatic repulsion between BisQ and G+/A+ resulting in reduced background fluorescence. […] Data points to both a decrease in signal background of ssFIT-PNA and to an increase in fluorescence in duplex form (FIT-PNA:RNA) in comparison to non-modified CCAT1 FIT-PNA (FIG. 7). […]
# In some embodiments, the modified or charged bases, G^+ and A^+, may be provided with a cp group positioned in their vicinity or as a cpG^+or cpA^+ monomer, in similarity to cpBisQ (Scheme 4). […] Data points to an increase in fluorescence in duplex form (FIT-PNA:RNA) in comparison to non-modified CCAT1 FIT-PNA as well as G+ and cpG modified CCAT1 FIT-PNA sequences (FIG. 8). […]
# [1] = tested on: BRAF V600E point mutation; experiment: fluorescence spectra of BRAF FIT-PNA with fully matched RNA (mutant) and mis-match RNA (WT); conditions: 1 μM PNA
# Source text: The data points to the added value of introducing the PEG8 linker. Clearly, the addition of the PEG8 linker improves the signal for fully matched RNA without losing the discrimination for the SNP. The addition of cpPNAs on both sides of BisQ (Table 2) results in an increased fluorescence in signal with mutant RNA (FIG. 6), however, the signal for WT RNA (with mismatch) also increases. This leads to some loss of discrimination for this SNP.
# FIGS. 5A-B depict the added value of the PEG8 linker. Fluorescence spectra of CLIP6 FIT-PNA (5A, right) and, CLIP6-PEG8-FIT-PNA (5B, left) with fully matched RNA (mutant) and mis-match RNA (WT).
# FIG. 6 depicts the increase in fluorescence for BRAF FIT-PNA substituted with cp. Fluorescence spectra of CLIP6-PEG8-cpFIT-PNA (1 μM) with fully matched RNA (mutant, (1.5 μM)) and mis-match RNA (WT, (1.5 μM)). A two-fold increase in fluorescence is obtained in comparison to the non-modified FIT-PNA (CLIP6-PEG8-FIT-PNA). An 18-fold enhancement in fluorescence is observed for CLIP6-PEG8-cpFIT-PNA in duplex form (with complementary RNA) in comparison to single strand.
# complementary RNA [2] = experiment: photophysical properties of duplex cpFIT-PNAs with complementary RNA (fluorescence spectrometry); format: physicochemical; conditions: for BR (brightness) / εmax / λmax, abs / Φ (quantum yield, QY): duplex with complementary RNA; for Φ (quantum yield, QY): relative to Cresyl Violet, 3 μM FIT-PNA in PBS pH 7; for I/I0: fluorescence enhancement, duplex with complementary RNA vs single strand; for enhancement upon duplex formation with complementary RNA: [FIT-PNA]=3 μM, [RNA]=4.5 μM
# Procedure: (A) set 1 showing fluorescence of FIT-PNA:RNA duplex for FIT-PNAs 1-4, (B) set 2 showing fluorescence of FIT-PNA:RNA duplex for FIT-PNAs 5-7 and, (C) enhanced fluorescence of bis-cpFIT-PNAs (4 and 7) after RNA hybridization. [FIT-PNA]=[cpFIT-PNA]=3 μM, [RNA]=4.5 μM.
# Fluorescence spectra were recorded by using a Jasco FT-6500 spectrometer. Measurements were carried out in fluorescence quartz cuvettes (10 mm) at a 3 μM concentration of FIT-PNA in a PBS buffered solution (100 mM NaCl, 10 mM NaH2PO4, pH 7). Quantum yields were determined relative to Cresyl Violet in PBS^3. PNAs were hybridized to complementary RNA using a 1:1.5 mixture of PNA:RNA at 37° C. for 1-2 hr. Samples were excited at 575 nm and emission spectra were recorded at 585-800 nm.
# complementary RNA [3] = experiment: Tm of RNA:PNA duplexes (duplex stability); format: binding; parameters: ΔTm: unit not given here; conditions: for Tm: RNA:PNA duplex; for ΔTm: vs unmodified control FIT-PNA of the set (1 or 5)
# Procedure: In addition, the enhancement upon duplex formation with complementary RNA observed for these FIT-PNAs (4 and 7) was quite dramatic; 47-fold for FIT-PNA 7 and 46-fold for FIT-PNA 4 (FIG. 1B). The effect of cpPNA monomers to duplex stability was assessed by measuring Tm for all RNA:PNA duplexes (Table 2). The stabilizing effect was smaller for FIT-PNA in comparison to that reported for cpPNA. It is believed that this is due to the close proximity of the modified bases to the bulkier BisQ surrogate base in comparison to natural bases. For all measurements an additional transition at 60° C. was observed.
# complementary RNA [4] = experiment: limit of detection (LOD) measurements, plate reader; conditions: overnight incubation at RT
# Procedure: As used herein, the term “amount” made in reference to presence of an SOI in a sample, refers to a quantity of the SOI that is sufficient to interact with a conjugate of the invention to provide a measurable signal. This amount is in the low nM range as shown for FIT-PNA 7 (Table 2).
# (§1) Fluorescence end points were recorded by using a Cytation 3 plate reader. Measurements were carried out in Greiner 96 well black plates with flat bottom, at 0.5 μM concentration in a PBS buffered solution (100 mM NaCl, 10 mM NaH2PO4, pH 7). FIT-PNAs were hybridized to complementary RNA using a 1:1.5 mixture of PNA:RNA at 37° C. for 1-2 hr or by allowing overnight incubation at RT (for limit of detection (LOD) measurements). Samples were excited at 575 nm and measured at 615 nm.
# [5] = tested on: 11-mer RNAs with all three possible mismatches; experiment: mismatch sensitivity of cpFIT-PNAs, plate reader; format: binding
# Procedure: Mismatch sensitivity was evaluated for single and doubly modified cpFIT-PNAs. Mismatch sensitivity for mono-substituted cpPNAs (cpFIT-PNAs 2, 3, and 6) are presented in FIGS. 3A-B. Double substituted cpFIT PNAs 4 and 7 were compared to FIT-PNA controls (1 and 5) and are presented in FIGS. 2A-B. 11-mer RNAs with all three possible mismatches were introduced either at 3′ (to the left of BisQ) or 5′ (to the right of BisQ) positions opposite to the nearby base to BisQ. One clear observation is that cpFIT-PNAs have significant selectivity for pyrimidine-pyrimidine mismatches (CC, TU, TC, CU where underlined base refers to PNA base) in comparison to FIT-PNA controls with the exception of the CU mismatch for cpFIT-PNA 4. For cpFIT-PNA 7, TC and TU mismatches are discriminated by a factor of 7.5 and 13.9-fold (vs. full matched RNA), respectively. This is around a 3 to 5-fold increase with respect to non-modified FIT-PNA 5.
# (A) double cpFIT-PNA 4 compared to FIT-PNA 1 and (B) double cpFIT-PNA 7 compared to FIT-PNA 5. FIT-PNAs were annealed to all possible 11-mer RNAs and measured on a plate reader (λex=575 λnm, Em=619 nm, n=3). [FIT-PNA]=[cpFIT-PNA]=0.5 μM, [RNA]=0.75 μM.
# FIGS. 3A-B provide mismatch sensitivity of single substituted cpFIT-PNAs. (A) cpFIT-PNA 2 and 3 and (B) cpFIT-PNA 6. FIT-PNAs (0.5 μM) were annealed to all possible 11-mer RNAs (0.75 μM) and measured on a plate reader (λex=575 nm, λem=619 nm, n=3).
# as §1
Substance,increase in fluorescence (CCAT1),enhancement in fluorescence in duplex form (with complementary RNA) in comparison to single strand ([1]; 1.5 μM RNA),increase in fluorescence in comparison to the non-modified FIT-PNA (CLIP6-PEG8-FIT-PNA) ([1]; 1.5 μM fully matched RNA (mutant)),BR (brightness) (complementary RNA [2]),εmax (complementary RNA [2]),"λmax, abs (complementary RNA [2])","Φ (quantum yield, QY) (complementary RNA [2])",I/I0 (complementary RNA [2]),Tm (complementary RNA [3]),ΔTm (complementary RNA [3]),enhancement upon duplex formation with complementary RNA (complementary RNA [2]),amount of SOI sufficient to provide a measurable signal (complementary RNA [4]),increase in TC/TU mismatch discrimination with respect to non-modified FIT-PNA 5 [5],"TC mismatch discrimination vs. full matched RNA ([5]; 0.5 μM FIT-PNA, 0.75 μM RNA)","TU mismatch discrimination vs. full matched RNA ([5]; 0.5 μM FIT-PNA, 0.75 μM RNA)"
CCAACCT-BisQ-G^+TAAGTG-dK4 [G^+ modified CCAT1 FIT-PNA],7 fold,–,–,–,–,–,–,–,–,–,–,–,–,–,–
CCAACCT-BisQ-cpG^+TAAGTG-dK4 [cpG^+ modified CCAT1 FIT-PNA],10 fold,–,–,–,–,–,–,–,–,–,–,–,–,–,–
GATTcpT-BisQ-TCTGTAGCTAC-PEG8-CLIP6 [CLIP6-PEG8-cpFIT-PNA],–,18 fold,two-fold,–,–,–,–,–,–,–,–,–,–,–,–
"^3′(4)KD-ATA-C-BisQ-TACAAC-^5′ [FIT-PNA 1, reference compound]",–,–,–,15 mM⁻¹ cm⁻¹ and 15.0 mM⁻¹ cm⁻¹,83.2 mM⁻¹ cm⁻¹,588 nm,0.18,12,50.2 °C,–,–,–,–,–,–
^3′(4)KD-ATA-C-BisQ-cpT-ACAAC-5′ [FIT-PNA 2],–,–,–,16.4 mM⁻¹ cm⁻¹,91.0 mM⁻¹ cm⁻¹,590 nm,0.18,15,53.7 °C,(+3.5),–,–,–,–,–
^3′(4)KD-ATA-cpC-BisQ-cpT-ACAAC-5′ [FIT-PNA 4],–,–,–,28.3 mM⁻¹ cm⁻¹,85.8 mM⁻¹ cm⁻¹,590 nm,0.33,46,54.7 °C,(+4.5),46 fold,–,–,–,–
^3′(4)KD-ATA-cpT-BisQ-T-ACAAC-^5′ [FIT-PNA 3],–,–,–,25.7 mM⁻¹ cm⁻¹,95.2 mM⁻¹ cm⁻¹,589 nm,0.27,12,53.7 °C,(+3.5),–,–,–,–,–
"^3′(4)KD-ATACA-T-BisQ-C-AAC-^5′ [FIT-PNA 5, reference compound]",–,–,–,16.5 mM⁻¹ cm⁻¹,82.3 mM⁻¹ cm⁻¹,587 nm,0.20,24,51.8 °C,–,–,–,–,–,–
^3′(4)KD-ATACA-cpT-BisQ-C-AAC-^5′ [FIT-PNA 6],–,–,–,29.1 mM⁻¹ cm⁻¹,85.7 mM⁻¹ cm⁻¹,586 nm,0.34,46,53 °C,(+1.2),–,–,–,–,–
^3′(4)KD-ATACA-cpT-BisQ-cpC-AAC-^5′ [FIT-PNA 7],–,–,–,35.3 mM⁻¹ cm⁻¹,90.6 mM⁻¹ cm⁻¹,586 nm,0.39,47,52.9 °C,(+1.1),47 fold,low nM range,3 to 5 fold,7.5 fold,13.9 fold
